Test results from patent US20160297828A1, “SPIROCYCLIC COMPOUNDS CONTAINING SPIRO[INDOLYL-3,1'-PYRROLO[3,4-C]PYRROLE] CORE AND SULPHUR-CONTAINING AMINO ACID RESIDUES” (priority 2013, published 2016).
“And” between values parts separate entries of the source, which are not always exact repeats. Equal entries are not always repeated.

Test system: rats with intracerebral hemorrhage
Experiment: Neurological deficit (C. P. McGrow stroke-index scale) in rats with intracerebral hemorrhage
Type: in vivo
Conditions: n = 15

Q: What does the source list for `CSCC[C@@H]1N[C@@]2(C(=O)Nc3ccccc32)[C@@H]2C(=O)N(c3ccc(C)cc3)C(=O)[C@H]12` [SI-86, 5′-(4-Methylphenyl)-3′-[2-(methylthio)ethyl]-3a′,6a′-dihydro-2′H-spiro[indole-3,1′-pyrrolo[3,4-c]pyrrol]-2,4′,6′(1H,3′H,5′H)-trione]?
A: neurological deficit, average point under C. P. McGrow scale (day 4, SI-86 10 mg/kg iv, mexydol 100, citocoline 250, actovegin 16, pyracetam 400 mg/kg ip): 4.1 points and 4.10 ± 0.32°*^#•$ points; neurological deficit, average point under C. P. McGrow scale (day 21, same doses): 3.1 points and 3.10 ± 0.33°*^#&$ points
